Measurements as given in publication PMC10122656, “Siglec-6 mediates the uptake of extracellular vesicles through a noncanonical glycolipid binding pocket” (Nature Communications, 2023).
Values joined by “and” are separate entries in the source; they are usually repeats but may differ in a detail not shown here. Equal values may be shown once.

Assays:
[1] = target: T1, R92K Siglec-6 CHO cells (Homo sapiens, UniProt O43699, R92K); assay: Cell assay (liposome/EV binding, flow cytometry); format: cell-based
T1 construct: These new CHO cell lines are the full-length versions of the Siglecs; expressed in transfected cells
Procedure: (§1) Mutations were introduced into each Siglec via gene overlap extension PCR mutagenesis (primers were ordered through IDT). Mutagenesis primers can be found in Supplementary Tables 2 and 3 for the critical arginine mutants of the entire Siglec family and the additional Siglec-6 mutants respectively.
200,000 cells/well were plated into a 96-well U-bottom microplate and centrifuged at 300 × g for 5 min. The cells were then resuspended in 50 µL of 50 µM liposome/50 µg/mL (protein concentration) of EV solution in DMEM F12 5% FBS and incubated at 37 °C for 30 min. Excess liposomes were then removed via centrifuged at 300 × g for 5 min followed by washing the cells with FACS solution. The cells were then resuspended in (1:250 V/V) anti-Siglec-flow buffer (1% V/V FBS, 500 µM, EDTA Hank’s Balanced Salt Solution pH 7.4), solution and left to rest on ice for 30 min. The cells were then centrifuged again at 300 × g for 5 min and the cells were resuspended in FACS buffer solution and were then ready for analysis by flow cytometry. Information regarding antibody clone, catalog number supplier, label isotype, and dilution can be found in Supplementary Table 6. […]
(§2) Flow cytometry measurements were collected on a 5-laser Fortessa X-20 (BD Bioscience). All the resulting data were analyzed using FlowJo (10.5.3) software (BD Biosciences).

[2] = target: WT Siglec-6 (Homo sapiens, UniProt O43699); assay: Binding competition between GM1 GLLs and 5 nGLLs; details: 1 mol% GM1 liposomes
From the text: Supplementary Fig. 20: Binding competition between GM1 GLLs and 5 nGLLs against WT Siglec-6.
Binding of 1 mol% GM1 liposomes to WT Siglec-6 in the presence of an increasing concentration of 5 mol%
5 nGLLs. Data is presented with a representative flow cytometry histogram and was quantified as the mean
± one standard deviation of the median fluorescent intensity (MFI) from […] three technical replicates. A
Brown-Forsythe and Welch one-way ANOVA was used to compare the binding of liposomes formulated
(1 picture or pasted object on this page, not shown here)

[3] = tested on: CHO cells expressing Siglec-6/8 chimeras; assay: Cell assay (liposome binding, flow cytometry); format: cell-based, human
Procedure: (§3) 200,000 cells/well were plated into a 96-well U-bottom microplate and centrifuged at 300 × g for 5 min. The cells were then resuspended in 50 µL of 50 µM liposome/50 µg/mL (protein concentration) of EV solution in DMEM F12 5% FBS and incubated at 37 °C for 30 min. Excess liposomes were then removed via centrifuged at 300 × g for 5 min followed by washing the cells with FACS solution. The cells were then resuspended in (1:250 V/V) anti-Siglec-flow buffer (1% V/V FBS, 500 µM, EDTA Hank’s Balanced Salt Solution pH 7.4), solution and left to rest on ice for 30 min. The cells were then centrifuged again at 300 × g for 5 min and the cells were resuspended in FACS buffer solution and were then ready for analysis by flow cytometry. Information regarding antibody clone, catalog number supplier, label isotype, and dilution can be found in Supplementary Table 6. The Siglec-positive cells were gated on for liposome-binding analysis (Supplementary Fig. 1b).
as §2
The genes for the constructs containing each domain of Siglec-6 to the two others from Siglec-8 were synthesized by GeneArt and designed with a 5’ NheI and 3’ AgeI site immediately before the start codon and stop codon respectively. […]

[4] = target: T2, Daudi cells transduced with WT Siglec-6 (Homo sapiens, UniProt O43699); assay: Imaging flow cytometry internalization; format: cell-based; details: 60 min at 4 or 37 °C
T2 construct: expressed in transfected cells; host or cells: Daudi cells (human B-cell line), lentiviral transduction
Procedure: Approximately 2 × 10^5 Daudi cells/well were plated into a 96-well U-bottom microplate and centrifuged at 300 × g for 5 min. The cell pellets were placed on ice, and 50 µL of 100 µM of liposome or 1:20 µL of EVs in RPMI growth medium (Gibco) containing 10% (V/V) fetal bovine serum (FBS; Gibco), 100 U/mL penicillin (Gibco), and 100 µg/mL streptomycin (Gibco) was added to their corresponding wells. Plates were incubated for 1 h at either 4 or 37 °C. After incubation, plates were centrifuged at 300 × g, 5 min, 4 °C then incubated with fluorescently conjugated anti-Siglec-6 antibody (Alexa Fluor 488; 1:250 dilution; R&D Systems) for 25 min at 4 °C. The plates were centrifuged once more at 300 × g, 4 °C, 5 min and the resulting cell pellet was resuspended in 40 µL of flow buffer (1% FBS, 500 µM EDTA Hank’s Balanced Salt Solution pH 7.4). 5000 events were collected for each sample using the ImageStream®X Mk II Flow cytometer (excitation lasers 488 nm and 642 nm, ×60 magnification). Data analysis was performed using IDEAS software, version 6.2.

[5] = tested on: LAD2 cells; assay: Liposome/EV binding to LAD2 cells by flow cytometry; format: cell-based, human
Procedure: as §3, §2
The LAD2 cell line (a gift from Arnold Kirshenbaum) was cultured in StemPro-34 SFM media (Life Technologies) supplemented with 2 mM L-glutamine, 100 U/ml penicillin, […] streptomycin, and 100 ng/ml recombinant human SCF (PeproTech, Rocky Hill, NJ). […]

[6] = target: T3, CHO cells expressing Siglec-6 mutants (C46A, C172A, R to A mutants, F93A, L95A, G175M) (Homo sapiens, UniProt O43699, R100A); assay: Cell assay (liposome/EV binding, flow cytometry); format: cell-based; details: sheet Figure S26a, 3% GM3-DAG liposomes, R100A;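 further: AF647 fluorescence intensity from 0.1 mol% AF647–PEG45–DSPE in liposomes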
T3 construct: These new CHO cell lines are the full-length versions of the Siglecs; expressed in transfected cells
Procedure: as §1, §3, §2

[7] = target: T4, CHO cells expressing Siglec-6 mutants (C46A, C172A, R to A mutants, F93A, L95A, G175M) (Homo sapiens, UniProt O43699, R92A); assay: Cell assay (liposome/EV binding, flow cytometry); format: cell-based; details: sheet Figure S26a, 3% GM3-DAG liposomes, R92A;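 further: AF647 fluorescence intensity from 0.1 mol% AF647–PEG45–DSPE in liposomes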
T4 construct: These new CHO cell lines are the full-length versions of the Siglecs; expressed in transfected cells
Procedure: as §1, §3, §2

[8] = target: T5, CHO cells expressing Siglec-6 mutants (C46A, C172A, R to A mutants, F93A, L95A, G175M) (Homo sapiens, UniProt O43699, G175M); assay: Cell assay (liposome/EV binding, flow cytometry); format: cell-based; details: sheet Figure S28b, 3% GM3-DAG liposomes, G175M;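 further: AF647 fluorescence intensity from 0.1 mol% AF647–PEG45–DSPE in liposomes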
T5 construct: These new CHO cell lines are the full-length versions of the Siglecs; expressed in transfected cells
Procedure: as §1, §3, §2

T4 sequence (O43699 27-453 R92A): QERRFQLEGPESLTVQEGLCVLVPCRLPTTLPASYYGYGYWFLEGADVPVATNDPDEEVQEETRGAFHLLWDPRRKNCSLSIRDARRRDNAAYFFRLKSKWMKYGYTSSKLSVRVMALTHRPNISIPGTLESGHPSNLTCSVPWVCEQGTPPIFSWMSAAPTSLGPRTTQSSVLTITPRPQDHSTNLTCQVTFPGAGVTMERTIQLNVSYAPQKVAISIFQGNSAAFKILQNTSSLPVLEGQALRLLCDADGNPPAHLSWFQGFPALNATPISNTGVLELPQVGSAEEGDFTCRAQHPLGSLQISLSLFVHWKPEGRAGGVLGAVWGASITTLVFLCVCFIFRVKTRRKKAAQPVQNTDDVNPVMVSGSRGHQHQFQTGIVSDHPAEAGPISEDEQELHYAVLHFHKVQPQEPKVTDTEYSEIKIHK
T5 sequence (O43699 27-453 G175M): as the sequence (O43699 27-453 R92A) above, with A66R, G149M counted along it
T3 sequence (O43699 27-453 R100A): as the sequence (O43699 27-453 R92A) above, with A66R, R74A counted along it
T1 sequence (O43699 27-453 R92K): as the sequence (O43699 27-453 R92A) above, with A66K counted along it
T2 sequence (O43699 27-453): as the sequence (O43699 27-453 R92A) above, with A66R counted along it
Chain of WT Siglec-6 (O43699 27-453): as the sequence (O43699 27-453 R92A) above, with A66R counted along it

Row | Structure (SMILES) | 5 liposome binding gated on identical Siglec-6 expression levels, MFI (Fig. S26e) ([1]; R92K Siglec-6, replicates) | 5 nGLL binding to R92K Siglec-6 CHO cells ([1]; cell assay, expression 42% of WT) | binding of GM1 GLLs to WT Siglec-6 in presence of increasing concentration of 5 mol% 5 nGLLs [2] | 5 liposome binding to chimeras with one individual Siglec-6 domain [3] | 5 nGLL binding to chimera with the first two domains of Siglec-6 [3] | internalization of 5 nGLLs by imaging flow cytometry [4] | 5 nGLL binding to LAD2 cells [5] | 5 nGLL binding to LAD2 cells after pre-incubation with a Siglec-6 antibody [5] | liposome binding, fluorescence signal (replicates) [6] | liposome binding, fluorescence signal (replicates) [7] | liposome binding, fluorescence signal (replicates) [8]
1 | CCCCCCCCCCCCCCCCOCC(COCCCCCCCCCCCCCCCC)OCc1cn(CCO[C@@H]2O[C@H](CO)[C@@H](O[C@@H]3O[C@H](CO)[C@H](O)[C@H](O[C@]4(C(=O)O)C[C@H](O)[C@@H](NC(C)=O)[C@H]([C@H](O)[C@H](O)CO)O4)[C@H]3O)[C@H](O)[C@H]2O)nn1 [nGL 5] | 29.25 and 36.25 and 24.25 | minimal binding | decreased | none of the three individual Siglec-6 domains supported binding | significantly above background | internalize 5 nGLLs at 37 °C but not 4 °C | bound robustly | abrogated | – | – | –
2 | CCCCCCCCCCCCCCCCOCC(COCCCCCCCCCCCCCCCC)OCc1cn(CCO[C@@H]2O[C@H](CO)[C@@H](O[C@@H]3O[C@H](CO)[C@H](O)[C@H](O[C@]4(C(=O)O)C[C@H](O)[C@@H](NC(C)=O)[C@H]([C@H](O)[C@H](O)CO)O4)[C@H]3O)[C@H](O)[C@H]2O)nn1 [GM3-DAG] | – | – | – | – | – | – | – | – | 2485 and 2181 and 2573 and 2894 | 242 and 228 and 244 and 252 | 928 and 1026 and 962 and 868
